From PubChem BioAssay (NCI)
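These data come from cells grown in 96-well plates and exposed to compound for 48 hours at five concentrations. At the GI50, growth is halved. TGI denotes the concentration required for complete inhibition of growth.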

Legend:
Experiment in all cases: NCI anticancer screen, dose series, 48 h
[1] = tested on: A498 renal
[2] = tested on: DU-145 prostate
[3] = tested on: SNB-19 CNS
[4] = tested on: NCI/ADR-RES ovarian
[5] = tested on: NCI-H522 lung
[6] = tested on: HL-60(TB) leukemia
[7] = tested on: CAKI-1 renal
[8] = tested on: U251 CNS
[9] = tested on: SK-MEL-28 melanoma
[10] = tested on: SF-295 CNS

## O=C1/C(=C/c2ccccc2O)N=C(c2ccccc2)N1c1cc(C(F)(F)F)ccc1Cl
[1]
  GI50: 59.4 µM
  TGI: > 100 µM
[2]
  GI50: 43.8 µM
  TGI: > 100 µM
[3]
  GI50: 31.6 µM
  TGI: > 100 µM
[4]
  GI50: 46.6 µM
  TGI: > 100 µM
[5]
  GI50: 48.4 µM
  TGI: > 100 µM
[6]
  GI50: > 100 µM
  TGI: > 100 µM
[7]
  GI50: 14.3 µM
  TGI: 38.5 µM
[8]
  GI50: 23.3 µM
  TGI: 61.9 µM
[9]
  GI50: > 100 µM
  TGI: > 100 µM
[10]
  GI50: 23.2 µM
  TGI: 52.6 µM

## COCCOCCOCCOCCOC(=O)OC[n+]1ccc(NC(=NCCCCCCOc2ccc(Cl)cc2)NC#N)cc1
[1]
  GI50: 1.28 µM
  TGI: 15.4 µM
[2]
  GI50: 0.0616 µM
  TGI: 18.2 µM
[3]
  GI50: 0.199 µM
  TGI: 18.3 µM
[4]
  GI50: < 0.0395 µM
  TGI: 20.2 µM
[5]
  TGI: 18.7 µM
[6]
  GI50: 3.25 µM
  TGI: 10.7 µM
[7]
  GI50: 3.3 µM
  TGI: 20.5 µM
[8]
  TGI: 18.7 µM
[9]
  GI50: 11.1 µM
  TGI: 23.5 µM
[10]
  GI50: < 0.0418 µM
  TGI: 12.5 µM

## Nc1nc(C(=O)O)c(N=Nc2ccccc2)c(=O)[nH]1
[1]
  TGI: > 100 µM
[2]
  TGI: > 100 µM
[3]
  TGI: > 100 µM
[4]
  TGI: > 100 µM
[5]
  TGI: > 100 µM
[6]
  TGI: > 100 µM
[7]
  TGI: > 100 µM
[8]
  TGI: > 100 µM
[9]
  TGI: > 100 µM
[10]
  TGI: > 100 µM

## CCn1ccnc1C(=O)/C=C/c1ccc(CC(=O)Nc2ccc(F)cc2)cc1
[1]
  GI50: 3.73 µM
  TGI: 15.5 µM
[2]
  GI50: 4.45 µM
  TGI: > 16.7 µM
[3]
  GI50: 3.58 µM
  TGI: > 16.7 µM
[4]
  GI50: 5.37 µM
  TGI: > 16.7 µM
[5]
  GI50: 3.92 µM
  TGI: 10.2 µM
[6]
  GI50: 3.18 µM
  TGI: 10.9 µM
[7]
  GI50: 5.08 µM
  TGI: > 16.7 µM
[8]
  GI50: 1.88 µM
  TGI: 7.94 µM
[9]
  GI50: 4.92 µM
  TGI: > 16.7 µM
[10]
  GI50: 4.41 µM
  TGI: > 16.7 µM

## NCc1ccc(-c2nc(-c3ccc(Cl)c(O)c3)c(-c3ccncc3)[nH]2)cc1
[1]
  GI50: > 25 µM
  TGI: > 25 µM
[2]
  GI50: > 25 µM
  TGI: > 25 µM
[3]
  GI50: > 25 µM
  TGI: > 25 µM
[4]
  GI50: > 25 µM
  TGI: > 25 µM
[5]
  GI50: > 25 µM
  TGI: > 25 µM
[6]
  GI50: 15.2 µM
  TGI: > 25 µM
[7]
  GI50: > 25 µM
  TGI: > 25 µM
[8]
  GI50: > 25 µM
  TGI: > 25 µM
[9]
  GI50: 5.3 µM
  TGI: > 25 µM
[10]
  GI50: > 25 µM
  TGI: > 25 µM

## COC(=O)c1cc([N+](=O)[O-])cc([N+](=O)[O-])c1Cl
[1]
  GI50: 17 µM
  TGI: 30.7 µM
[2]
  GI50: 2.3 µM
  TGI: 6.6 µM
[3]
  GI50: 17.4 µM
  TGI: 34.5 µM
[4]
  GI50: 2.8 µM
  TGI: 8.71 µM
[5]
  GI50: 1.82 µM
  TGI: 3.31 µM
[6]
  GI50: 3.98 µM
  TGI: 27.5 µM
[7]
  GI50: 1.73 µM
  TGI: 3.28 µM
[8]
  GI50: 2.14 µM
  TGI: 4.78 µM
[9]
  GI50: 1.94 µM
  TGI: 4.08 µM
[10]
  GI50: 19.3 µM
  TGI: 36.9 µM

## N#Cc1cc2c(cc1Cl)Sc1nnc(Nc3cccc4ccccc34)n1S2(=O)=O
[1]
  GI50: 17.5 µM
  TGI: 31.7 µM
[2]
  GI50: 3.66 µM
  TGI: 12.9 µM
[3]
  GI50: 1.89 µM
  TGI: 4.29 µM
[4]
  GI50: 2.11 µM
  TGI: 4.4 µM
[5]
  GI50: 21.6 µM
  TGI: > 100 µM
[6]
  GI50: 2.75 µM
  TGI: 20.2 µM
[7]
  GI50: 3.14 µM
  TGI: 10.9 µM
[8]
  GI50: 3.23 µM
  TGI: 10.7 µM
[9]
  GI50: 5.05 µM
  TGI: 16.3 µM
[10]
  GI50: 16.8 µM
  TGI: 31.8 µM

## COc1ccc(-c2[nH]c3ccccc3c2/C=C(\C#N)S(=O)(=O)c2ccccc2)cc1
[1]
  GI50: 1.14 µM
  TGI: > 28.6 µM
[2]
  GI50: 0.447 µM
[3]
  GI50: 0.844 µM
  TGI: > 100 µM
[4]
  GI50: 0.427 µM
  TGI: > 25.8 µM
[5]
  GI50: 1.78 µM
[6]
  GI50: 0.287 µM
  TGI: 1.5 µM
[7]
  GI50: 0.975 µM
  TGI: > 31.6 µM
[8]
  GI50: 0.462 µM
  TGI: > 29.4 µM
[9]
  GI50: 1.48 µM
  TGI: > 71.9 µM
[10]
  GI50: 0.487 µM

## S=C(NCc1ccc2c(c1)OCO2)N1CCN(c2ncnc3c2oc2ccccc23)CC1
[1]
  GI50: 4.42 µM
  TGI: > 100 µM
[2]
  GI50: > 100 µM
  TGI: > 100 µM
[3]
  GI50: > 100 µM
  TGI: > 100 µM
[4]
  GI50: 4.69 µM
  TGI: > 100 µM
[5]
  GI50: 24 µM
  TGI: > 100 µM
[6]
  GI50: 4.87 µM
  TGI: > 95.4 µM
[7]
  GI50: 5.93 µM
  TGI: > 100 µM
[8]
  GI50: 27.2 µM
  TGI: > 100 µM
[9]
  GI50: > 100 µM
  TGI: > 100 µM
[10]
  GI50: 5.38 µM
  TGI: > 100 µM

## C=CCN(CC=C)C(=O)[C@H](CC)[C@@H]1CC[C@@H](C)[C@@H]([C@H](C)[C@@H](O)[C@@H](C)C(=O)[C@H](CC)C2O[C@]3(C=C[C@@H](O)[C@]4(CC[C@@](C)([C@H]5CC[C@](O)(CC)[C@H](C)O5)O4)O3)[C@H](C)C[C@@H]2C)O1 (stereo not given in full)
[1]
  GI50: 2.07 µM
  TGI: 5.32 µM
[2]
  GI50: 2.46 µM
  TGI: 5.61 µM
[3]
  GI50: 3.08 µM
  TGI: > 100 µM
[4]
  GI50: 2.7 µM
  TGI: 9.82 µM
[5]
  GI50: 2.08 µM
  TGI: 5.68 µM
[6]
  GI50: 2.09 µM
  TGI: 4.76 µM
[7]
  GI50: 1.75 µM
  TGI: 7.63 µM
[8]
  GI50: 2.78 µM
  TGI: 10.1 µM
[9]
  GI50: 4.45 µM
  TGI: 21.6 µM
[10]
  GI50: 1.87 µM
  TGI: 5.23 µM
